Measured values taken from patent EP4810500A1, “IMIDAZOL-2-ONE DERIVATIVE AND USE THEREOF IN MEDICINE” (Haisco Pharmaceutical Group Co., Ltd., priority 2023, dated 2025).

How the values were obtained:
CYP2C19 = molecular target: T1, CYP2C19 (Homo sapiens, UniProt P33261); test: CYP450 enzyme activity inhibition assay (human liver microsomes); assay type: in vitro ADME; conditions: human, microsomes
T1 construct: from tissue; host or cells: human liver microsomes
Protocol: (§1) The purpose of this study was to evaluate the effects of the test compounds on the activities of five isoenzymes (CYP1A2, CYP2C9, CYP2C19, CYP2D6, and CYP3A4) of human liver microsomal cytochrome P450 (CYP) using an in vitro testing system. The specific probe substrates of CYP450 isoenzymes were incubated with human liver microsomes and test compounds of different concentrations, and reduced nicotinamide adenine dinucleotide phosphate (NADPH) was added to initiate the reaction. After the completion of the reaction, the sample was treated and liquid chromatography-tandem mass spectrometry (LC-MS/MS) was used to quantitatively detect metabolites produced by specific substrates. Changes in CYP enzyme activity were determined, and IC50 value was calculated to evaluate the inhibitory potential of the test compound on each CYP enzyme subtype.

CYP3A4 = molecular target: T2, CYP3A4 (Homo sapiens, UniProt P08684); test: as above; assay type: in vitro ADME; conditions: human, microsomes
T2 construct: from tissue; host or cells: human liver microsomes
Protocol: as §1

CYP1A2 = molecular target: T3, CYP1A2 (Homo sapiens, UniProt P05177); test: as above; assay type: in vitro ADME; conditions: human, microsomes
T3 construct: from tissue; host or cells: human liver microsomes
T3 sequence (P05177 1-516): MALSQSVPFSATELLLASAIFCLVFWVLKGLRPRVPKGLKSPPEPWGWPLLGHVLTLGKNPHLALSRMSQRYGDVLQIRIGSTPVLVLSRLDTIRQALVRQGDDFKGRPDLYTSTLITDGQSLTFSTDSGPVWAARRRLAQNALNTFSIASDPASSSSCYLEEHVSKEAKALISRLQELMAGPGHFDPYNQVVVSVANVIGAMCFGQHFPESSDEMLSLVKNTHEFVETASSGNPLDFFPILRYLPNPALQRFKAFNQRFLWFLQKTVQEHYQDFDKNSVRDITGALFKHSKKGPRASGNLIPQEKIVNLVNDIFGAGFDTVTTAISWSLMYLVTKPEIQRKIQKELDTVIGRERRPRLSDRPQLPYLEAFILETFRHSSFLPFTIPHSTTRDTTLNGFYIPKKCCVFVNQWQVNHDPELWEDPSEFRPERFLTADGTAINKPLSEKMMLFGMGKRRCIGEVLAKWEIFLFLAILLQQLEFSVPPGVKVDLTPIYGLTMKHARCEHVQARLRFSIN
Protocol: as §1

CYP2D6 = molecular target: T4, CYP2D6 (Homo sapiens, UniProt P10635); test: as above; assay type: in vitro ADME; conditions: human, microsomes
T4 construct: from tissue; host or cells: human liver microsomes
Protocol: as §1

CYP2C9 = molecular target: T5, CYP2C9 (Homo sapiens, UniProt P11712); test: as above; assay type: in vitro ADME; conditions: human, microsomes
T5 construct: from tissue; host or cells: human liver microsomes
Protocol: as §1

GLP-1R [1] = molecular target: T6, GLP-1R (Homo sapiens, UniProt P43220); test: In vitro activity assay (cAMP HTRF, HEK293-CRE-luc-GLP-1R cells); assay type: cell-based; parameters: expressed in transfected cells; host or cells: HEK293 (HEK293-CRE-luc-GLP-1R); conditions: cAMP HTRF 665 nm/620 nm, 1 h incubation
Protocol: HEK293-CRE-luc-GLP-1R cells were seeded into a 384-well cell culture plate (Greiner #781946) at a certain cell density (5 µL/well). 5 µl/well of 2× working solution was added to the 384-well microplate. The microplate was sealed with parafilm and incubated in a 37°C 5% CO2 incubator (Thermo) for 1 h. Subsequently, the detection was performed using the cAMP-GS HIRANGE KIT (PerkinElmer, 62AM6PEB), and detection reagents were prepared according to the kit instruction manual. After the incubation, the detection reagents were added to the 384-well microplate, and the microplate was incubated for 1 h at room temperature in the dark. HTRF signals at 665 nm and 620 nm were then measured using a multimode microplate reader. Data were exported from the microplate reader in Excel format. GraphPad Prism was opened. The logarithm of the sample concentration was calculated. Using the logarithm of concentration as the x-axis and the 665 nm/620 nm ratio as the y-axis, four-parameter logistic fitting was performed to obtain the EC50 value of the curve. Table 1: EC50 of compounds against GLP-1

[2] = Mouse pharmacokinetic assay; assay type: in vivo, male C57 mice; conditions: mouse, plasma, po, mice; for bioavailability: intragastric administration 10 mg/kg (intravenous 2.5 mg/kg); for AUC(0-t): intragastric administration 10 mg/kg
Protocol: Experimental animals: male C57 mice, 22-25 g, 6 mice/compound.
Experimental design: on the day of the experiment, C57 mice were randomly grouped according to body weight. The animals were fasted with water available for 12 h to 14 h one day before the administration, and were fed 4 h after the administration. Table 2. Administration information
Before and after the administration, 0.06 mL of blood was taken from the orbits under isoflurane anaesthesia and placed in an EDTAK2 centrifuge tube. The blood was centrifuged at 5000 rpm at 4°C for 10 min, and the plasma was collected. The blood collection time points for the intravenous administration group and intragastric administration group were 0, 5 min, 15 min, 30 min, 1 h, 2 h, 4 h, 7 h and 24 h. Before analysis and detection, all samples were stored at -80°C, and the samples were quantitatively analysed by LC-MS/MS. Table 2-1 Pharmacokinetic results of test compounds in mice

[3] = Monkey pharmacokinetic assay; assay type: in vivo, male cynomolgus monkeys; conditions: cynomolgus monkey, po, monkeys
Protocol: Experimental animals: male cynomolgus monkeys, 3-5 kg, 3-6 years old, 5 monkeys/compound, purchased from Hainan New Source Biotechnology Co., Ltd.
Experimental method: On the day of the experiment, five monkeys were randomly grouped according to body weight, with two in the intravenous administration group and three in the intragastric administration group. The animals were fasted with water available for 14 h to 18 h one day before the administration, and were fed 4 h after the administration. Table 3. Administration information

GLP-1R [4] = molecular target: T6, GLP-1R; test: Oral glucose tolerance test (OGTT); assay type: in vivo, male C57BL/6-G1p1rem2 (hGLP1R) Smoc mice; parameters: from tissue; host or cells: whole animal: male C57BL/6-Glp1r em2(hGLP1R) Smoc knock-in mice; conditions: 3 mg/kg, orally administered; from blood glucose AUC0-2 h after glucose load
Protocol: OGTT experiment was performed in male C57BL/6-G1p1rem2 (hGLP1R) Smoc mice to evaluate the hypoglycaemic effect of GLP-1 receptor agonists. The animals were fasted for more than 16 hours and randomly grouped. Tail tip blood was collected and basal fasting blood glucose (FBG) was measured using a blood glucose meter. Mice with FBG in the range of 3.5-6.5 mmol/L were selected and orally administered, and the control group was administered the vehicle. 15 min after administration, each group of animals was intragastrically administered with 25% glucose solution. Blood glucose levels were measured in tail tip blood collected 15 min, 30 min, 45 min, 1 h, and 2 h after glucose administration. 0-2 h blood glucose AUC0-2 h was calculated using the Graphpad Prism software, and the inhibition rate was further calculated. [formula]

T6 sequence (P43220 24-463): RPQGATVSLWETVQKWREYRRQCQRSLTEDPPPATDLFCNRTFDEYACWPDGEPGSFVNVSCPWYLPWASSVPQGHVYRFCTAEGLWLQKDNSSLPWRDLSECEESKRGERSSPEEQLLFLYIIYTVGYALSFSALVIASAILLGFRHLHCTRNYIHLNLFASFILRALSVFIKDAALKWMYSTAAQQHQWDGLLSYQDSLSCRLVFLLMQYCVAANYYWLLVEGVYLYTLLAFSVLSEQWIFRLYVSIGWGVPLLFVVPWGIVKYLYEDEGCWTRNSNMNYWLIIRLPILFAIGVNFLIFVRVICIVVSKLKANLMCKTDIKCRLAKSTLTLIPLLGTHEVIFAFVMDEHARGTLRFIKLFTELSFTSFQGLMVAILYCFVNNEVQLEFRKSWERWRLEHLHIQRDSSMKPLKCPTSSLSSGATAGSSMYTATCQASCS
T4 sequence (P10635 whole entry): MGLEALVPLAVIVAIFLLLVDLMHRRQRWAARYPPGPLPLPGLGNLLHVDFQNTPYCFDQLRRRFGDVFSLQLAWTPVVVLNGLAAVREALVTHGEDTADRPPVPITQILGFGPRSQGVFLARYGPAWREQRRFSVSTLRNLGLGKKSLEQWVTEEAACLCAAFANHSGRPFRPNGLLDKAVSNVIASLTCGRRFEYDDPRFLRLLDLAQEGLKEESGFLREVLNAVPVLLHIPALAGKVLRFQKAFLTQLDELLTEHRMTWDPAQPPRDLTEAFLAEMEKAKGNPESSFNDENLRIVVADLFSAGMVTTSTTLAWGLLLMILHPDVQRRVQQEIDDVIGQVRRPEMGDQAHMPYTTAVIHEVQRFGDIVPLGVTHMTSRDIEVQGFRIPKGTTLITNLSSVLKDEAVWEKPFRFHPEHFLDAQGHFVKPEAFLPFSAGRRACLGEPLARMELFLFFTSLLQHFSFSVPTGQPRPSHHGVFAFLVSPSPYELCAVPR
T5 sequence (P11712 whole entry): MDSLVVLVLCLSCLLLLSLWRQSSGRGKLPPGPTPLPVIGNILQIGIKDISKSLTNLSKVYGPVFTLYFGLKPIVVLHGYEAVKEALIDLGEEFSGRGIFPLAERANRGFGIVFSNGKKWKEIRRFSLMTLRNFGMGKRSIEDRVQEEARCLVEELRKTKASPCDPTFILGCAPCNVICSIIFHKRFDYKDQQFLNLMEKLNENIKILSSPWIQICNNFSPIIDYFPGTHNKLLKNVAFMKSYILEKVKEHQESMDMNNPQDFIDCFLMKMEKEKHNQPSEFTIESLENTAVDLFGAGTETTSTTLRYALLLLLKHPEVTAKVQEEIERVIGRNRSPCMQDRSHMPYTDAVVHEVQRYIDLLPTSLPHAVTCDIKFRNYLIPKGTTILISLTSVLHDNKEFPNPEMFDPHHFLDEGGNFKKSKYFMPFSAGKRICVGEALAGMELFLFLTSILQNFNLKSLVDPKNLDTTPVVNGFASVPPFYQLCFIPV
T1 sequence (P33261 whole entry): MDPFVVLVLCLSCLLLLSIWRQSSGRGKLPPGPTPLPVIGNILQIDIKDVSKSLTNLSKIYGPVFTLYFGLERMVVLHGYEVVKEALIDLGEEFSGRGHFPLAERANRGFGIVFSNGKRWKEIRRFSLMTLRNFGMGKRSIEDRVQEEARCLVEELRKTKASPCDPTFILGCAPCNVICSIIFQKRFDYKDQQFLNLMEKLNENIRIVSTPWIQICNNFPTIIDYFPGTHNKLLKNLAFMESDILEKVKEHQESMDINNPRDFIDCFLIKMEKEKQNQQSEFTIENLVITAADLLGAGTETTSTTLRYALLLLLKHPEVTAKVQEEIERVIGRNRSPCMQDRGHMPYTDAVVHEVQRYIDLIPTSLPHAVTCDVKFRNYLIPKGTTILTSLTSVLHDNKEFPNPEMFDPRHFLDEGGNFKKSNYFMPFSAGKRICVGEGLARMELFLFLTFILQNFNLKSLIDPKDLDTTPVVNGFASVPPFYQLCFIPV
T2 sequence (P08684 whole entry): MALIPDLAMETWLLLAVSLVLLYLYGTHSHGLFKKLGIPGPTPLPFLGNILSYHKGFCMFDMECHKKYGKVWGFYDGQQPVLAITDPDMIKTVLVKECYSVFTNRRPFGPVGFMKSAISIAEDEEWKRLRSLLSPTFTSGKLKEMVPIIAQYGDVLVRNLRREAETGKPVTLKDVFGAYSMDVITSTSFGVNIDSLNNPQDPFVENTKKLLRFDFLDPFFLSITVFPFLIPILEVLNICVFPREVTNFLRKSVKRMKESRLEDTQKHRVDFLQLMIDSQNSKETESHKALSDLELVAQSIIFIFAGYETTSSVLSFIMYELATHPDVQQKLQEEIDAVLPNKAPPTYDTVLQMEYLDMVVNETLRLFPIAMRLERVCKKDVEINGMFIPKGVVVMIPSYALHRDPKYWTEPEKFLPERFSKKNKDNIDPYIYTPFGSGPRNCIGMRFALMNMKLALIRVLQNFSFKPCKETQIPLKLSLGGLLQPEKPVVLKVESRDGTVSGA

In the case of `Cc1cc(-n2nc3c(c2-n2ccn(-c4ccc5c(c4)N(C)C(=O)C54CCOCC4)c2=O)[C@H](C)N(C(=O)c2cc4cc(C5CCOC(C)(C)C5)sc4n2C2(c4noc(=O)[nH]4)C[C@@H]2C)CC3)cc(C)c1F` (single isomer, unassigned) [Compound 9], the IC50 (CYP2C19) is reported as greater than 30000 nM, the IC50 (CYP3A4) is reported as greater than 30000 nM and the IC50 (CYP1A2) is reported as greater than 30000 nM. For the same molecule, the IC50 (CYP2D6) was greater than 30000 nM, the IC50 (CYP2C9) was 3310 nM and the EC50 (GLP-1R [1]) was less than 1 nM.

`Cc1cc(-n2nc3c(c2-n2ccn(-c4ccc5c(c4)N(C)C(=O)C54CCOCC4)c2=O)[C@H](C)N(C(=O)c2cc4cc([C@H]5CCOC(C)(C)C5)ccc4n2[C@@]2(c4noc(=O)[nH]4)C[C@@H]2C)CC3)cc(C)c1F` [Compound 2] gave a bioavailability [2] of 70.3%, an AUC(0-t) [2] of 23200 ng·h/mL and a bioavailability ([3]; in vivo, intragastric administration 5 mg/kg (intravenous 1 mg/kg)) of 32.6%. For the same molecule, the AUC(0-t) ([3]; intragastric administration 5 mg/kg, plasma) was 11600 ng·h/mL, the “blood glucose inhibition rate” value (GLP-1R [4]) was -25.5% and the EC50 (GLP-1R [1]) was less than 1 nM.

With `[2H]C([2H])([2H])N1C(=O)C2(CCOCC2)c2ccc(-n3ccn(-c4c5c(nn4-c4cc(C)c(F)c(C)c4)CCN(C(=O)c4cc6cc([C@H]7CCOC(C)(C)C7)ccc6n4[C@@]4(c6noc(=O)[nH]6)C[C@@H]4C)[C@H]5C)c3=O)cc21` [Compound 3] the IC50 (CYP2C19) was greater than 30000 nM, the IC50 (CYP3A4) was greater than 30000 nM and the IC50 (CYP1A2) was greater than 30000 nM. For the same molecule, the IC50 (CYP2D6) was greater than 30000 nM, the IC50 (CYP2C9) was greater than 30000 nM and the “blood glucose inhibition rate” value (GLP-1R [4]) was -37.1%. For the same molecule, the EC50 (GLP-1R [1]) was less than 1 nM.

`[2H]C([2H])([2H])N1C(=O)C2(CCOCC2)c2ccc(-n3ccn(-c4c5c(nn4-c4ccc(F)c(C6(F)CC6)c4)CCN(C(=O)c4cc6cc([C@H]7CCOC(C)(C)C7)ccc6n4[C@@]4(c6noc(=O)[nH]6)C[C@@H]4C)[C@H]5C)c3=O)c(F)c21` [Compound 45] showed an EC50 (GLP-1R [1]) of less than 1 nM.

Work on `C[C@H]1c2c(nn(-c3ccc(F)c(C4(F)CC4)c3)c2-n2ccn(-c3ccc4c(c3F)N(C)C(=O)C43CCOCC3)c2=O)CCN1C(=O)c1cc2cc([C@H]3CCOC(C)(C)C3)ccc2n1[C@@]1(c2noc(=O)[nH]2)C[C@@H]1C` [Compound 46] yielded an EC50 (GLP-1R [1]) of less than 1 nM.

Molecule `Cc1cc(-n2nc3c(c2-n2ccn(-c4ccc5c(c4)N(C)C(=O)C54CCOCC4)c2=O)[C@H](C)N(C(=O)c2cc4cc(C5CCOCC5)ccc4n2[C@@]2(c4noc(=O)[nH]4)C[C@@H]2C)CC3)cc(C)c1F` [Compound 47] has an EC50 (GLP-1R [1]) of less than 1 nM.

`C[C@H]1c2c(nn(-c3ccc(F)c(C4(F)CC4)c3)c2-n2ccn(-c3ccc4c(c3F)N(C)C(=O)C43CCOCC3)c2=O)CCN1C(=O)c1cc2cc(C3CCOCC3)ccc2n1[C@@]1(c2noc(=O)[nH]2)C[C@@H]1C` [Compound 49] gave an EC50 (GLP-1R [1]) of less than 1 nM.

`[2H]C([2H])([2H])N1C(=O)C2(CCOCC2)c2ccc(-n3ccn(-c4c5c(nn4-c4ccc(F)c(C6(F)CC6)c4)CCN(C(=O)c4cc6cc(C7CCOCC7)ccc6n4[C@@]4(c6noc(=O)[nH]6)C[C@@H]4C)[C@H]5C)c3=O)c(F)c21` [Compound 51] showed an EC50 (GLP-1R [1]) of less than 1 nM.

Work on `C=C(F)c1cc(-n2nc3c(c2-n2ccn(-c4ccc5c(c4)N(C)C(=O)C54CCOCC4)c2=O)[C@H](C)N(C(=O)c2cc4cc([C@H]5CCOC(C)(C)C5)ccc4n2[C@@]2(c4noc(=O)[nH]4)C[C@@H]2C)CC3)ccc1F` [Compound 52] yielded an EC50 (GLP-1R [1]) of less than 1 nM.

For `[2H]C([2H])([2H])N1C(=O)C2(CCOCC2)c2ccc(-n3ccn(-c4c5c(nn4-c4ccc(F)c(C(=C)F)c4)CCN(C(=O)c4cc6cc([C@H]7CCOC(C)(C)C7)ccc6n4[C@@]4(c6noc(=O)[nH]6)C[C@@H]4C)[C@H]5C)c3=O)cc21` [Compound 53], the EC50 (GLP-1R [1]) was less than 1 nM.

For `C=C(F)c1cc(-n2nc3c(c2-n2ccn(-c4ccc5c(c4F)N(C)C(=O)C54CCOCC4)c2=O)[C@H](C)N(C(=O)c2cc4cc([C@H]5CCOC(C)(C)C5)ccc4n2[C@@]2(c4noc(=O)[nH]4)C[C@@H]2C)CC3)ccc1F` [Compound 54], the bioavailability [2] was 33.8%, the AUC(0-t) [2] was 12100 ng·h/mL and the EC50 (GLP-1R [1]) was less than 1 nM.

Work on `[2H]C([2H])([2H])N1C(=O)C2(CCOCC2)c2ccc(-n3ccn(-c4c5c(nn4-c4ccc(F)c(C(=C)F)c4)CCN(C(=O)c4cc6cc([C@H]7CCOC(C)(C)C7)ccc6n4[C@@]4(c6noc(=O)[nH]6)C[C@@H]4C)[C@H]5C)c3=O)c(F)c21` [Compound 55] yielded a bioavailability [2] of 25.1%, an AUC(0-t) [2] of 8670 ng·h/mL and an EC50 (GLP-1R [1]) of less than 1 nM.

Work on `Cc1cc(-n2nc3c(c2-n2ccn(-c4ccc5c(c4F)N(C)C(=O)C54CCOCC4)c2=O)[C@H](C)N(C(=O)c2cc4cc(C5CCOCC5)ccc4n2[C@@]2(c4noc(=O)[nH]4)C[C@@H]2C)CC3)cc(C)c1F` [Compound 56] yielded an EC50 (GLP-1R [1]) of less than 1 nM.

For `[2H]C([2H])([2H])N1C(=O)C2(CCOCC2)c2ccc(-n3ccn(-c4c5c(nn4-c4cc(C)c(F)c(C)c4)CCN(C(=O)c4cc6cc(C7CCOCC7)ccc6n4[C@@]4(c6noc(=O)[nH]6)C[C@@H]4C)[C@H]5C)c3=O)c(F)c21` [Compound 57], the EC50 (GLP-1R [1]) was less than 1 nM.

Molecule `[2H]C([2H])([2H])N1C(=O)C2(CCOCC2)c2ccc(-n3ccn(-c4c5c(nn4-c4cc(C)c(F)c(C)c4)CCN(C(=O)c4cc6cc(C7CCOCC7)ccc6n4[C@@]4(c6noc(=O)[nH]6)C[C@@H]4C)[C@H]5C)c3=O)cc21` [Compound 58] has an EC50 (GLP-1R [1]) of less than 1 nM.
